What all share (type): in vivo
Assay [1] has as its system Diabrotica balteata. Kind of assay: Diabrotica balteata spray test. The following applies: 160 μg/well, wheat seeds, after 7 days; for pest or weed control at 160 µg/disc, 160 µg/well: Diabrotica balteata, 168 h, read-out: efficacy (seedlings grown). As to the method: Diabrotica balteata—Spray Test
(§1) To produce a suitable preparation of active compound, 1 part by weight of active compound is mixed with the stated amount of solvent, and the concentrate is diluted with water, containing an emulsifier concentration of 1000 ppm, to the desired concentration. Further test concentrations are prepared by dilution with emulsifier containing water.
Soaked wheat seeds (Triticum aestivum) are placed in a multiple well plate filled with agar and some water and are incubated for 1 day to germinate (5 seeds per well). The germinated wheat seeds are sprayed with a test solution containing the desired concentration of the active ingredient. Afterwards each unit is infected with 10-20 larvae of the banded cucumber beetle (Diabrotica balteata).
After 7 days efficacy in % is determined. 100% means all the seedlings have grown up like in the untreated, uninfected control; 0% means none of the seedlings have grown.

Assay [2] deals with Ctenocephalides felis. The experiment in a line: Ctenocephalides felis oral test. The following applies: Ctenocephalides felis, in Bos taurus, po, 48 h. How it is done: Ctenocephalides felis—Oral Test
Solvent: dimethyl sulfoxide
To produce a suitable preparation of active compound, 10 mg of active compound are dissolved in 0.5 ml solvent, and the concentrate is diluted with cattle blood to the desired concentration.
Approximately 20 adult unfed cat fleas (Ctenocephalides felis) are placed in flea chambers. The blood chamber, sealed with parafilm on the bottom, are filled with cattle blood supplied with compound solution and placed on the gauze covered top of the flea chamber, so that the fleas are able to suck the blood. The blood chamber is heated to 37° C. whereas the flea chamber is kept at room temperature.
After 2 days mortality in % is determined. 100% means all the fleas have been killed; 0% means none of the fleas have been killed.

Assay [3] relates to Nezara viridula. The experiment in a line: Nezara viridula spray test. To be noted: in Hordeum vulgare, 96 h. As to the method: Nezara viridula—Spray Test
as §1
Barley plants (Hordeum vulgare) infested with larvae of the southern green stink bug (Nezara viridula) are sprayed with a test solution containing the desired concentration of the active ingredient.
After 4 days mortality in % is determined. 100% means all the stink bugs have been killed; 0% means none of the stink bugs have been killed.

Assay [4] has as its system Myzus persicae. The experiment in a line: Myzus persicae oral test. To be noted: 120 h. How it is done:
To produce a suitable preparation of active compound, 1 part by weight of active compound is mixed with the stated amount of solvent, and the concentrate is diluted with water to the desired concentration.
50 μl compound solution is filled in microtiter plates and 150 μl IPL41 insect medium (33%+15% sugar) is added to obtain a total volume of 200 μl per well. Afterwards the plates are sealed with parafilm through which a mixed population of the green peach aphid (Myzus persicae) can suck on the compound preparation.
After 5 days mortality in % is determined. 100% means all aphids have been killed and 0% means none of the aphids have been killed.

The test system of assay [5] is Culex quinquefasciatus strain P00. Kind of assay: Culex quinquefasciatus test (CULXFA surface treatment & contact assay). The following applies: surface concentration 20 mg/m^2, 30 minutes exposure, 24 hours after contact, read-out: efficacy (mortality). As to the method: Culex quinquefasciatus Test (CULXFA Surface Treatment & Contact Assay)
Solvent: Aceton+2000 ppm rapeseed oil methyl ester (RME)
In order to produce a sufficient, active ingredient containing solution it is necessary to solve the test-compound in the solvent-mix (Acetone at 2 mg/ml/RME 2000 ppm). This solution is pipetted onto a glazed tile and after evaporation of the Acetone, adult mosquitoes of the species Culex quinquefasciatus strain P00 are placed onto the dried surface. The exposure time is 30 minutes.
Mortality in percent (%) is determined 24 hours after contact to the treated surface. 100% mortality means that all test-insects are dead, whereas 0% means that not a single insect died.

Take `CC(c1ncnn1-c1ncccn1)N(CC1CC1)C(=O)Cc1cc(Cl)cc(C(F)(F)F)c1` (stereo not drawn) [Example I-011]: in assay [1], the pest or weed control at 160 µg/disc, 160 µg/well is 100%.
Take `CC(c1ncnn1-c1ncccn1)N(CC1CC1)C(=O)c1cc(Cl)ccc1Cl` (stereo not drawn) [Example I-014]: the pest or weed control at 160 µg/disc, 160 µg/well in assay [1] came to 100%.
In turn, `COC[C@H](NC(=O)c1cc(Cl)cc(S(C)(=O)=O)c1)c1ncnn1-c1ccc(C#N)cn1` [Example I-058, 3-chloro-N-{(1R)-1-[1-(5-cyanopyridin-2-yl)-1H-1,2,4-triazol-5-yl]-2-methoxyethyl}-5-(methylsulfonyl)benzamide] gave a mortality at 100 ppm in assay [2] of 100%.
In the case of `C[C@@H](NC(=O)c1cc(Cl)cc(SC(C)(C)C)c1)c1ncnn1-c1ncccn1` [Example I-060], the mortality at 500 g/ha in assay [3] turned out to be 100%. For the same compound, the pest or weed control at 160 µg/disc, 160 µg/well in assay [1] was 100%. This compound also displayed a mortality at 100 ppm in assay [2] of 100%.
Regarding `CC(NC(=O)c1cc(Cl)cc(S(=O)(=O)C(F)(F)F)c1)c1ncnn1-c1ncc(Cl)cc1F` (stereo not drawn) [Example I-079], the “efficacy (seedlings grown)” value in assay [1] came out at 100%.
As for `C[C@H](NC(=O)c1cc(Cl)cc(NS(=O)(=O)c2ccccc2)c1)c1ncnn1-c1ncccn1` [Example I-086, 3-chloro-5-[(phenylsulfonyl)amino]-N-{(1S)-1-[1-(pyrimidin-2-yl)-1H-1,2,4-triazol-5-yl]ethyl}benzamide], in assay [4], the mortality at 4 ppm is 90%.
Take `C[C@@H](NC(=O)c1cc(Cl)cc(NC(=O)C2CC2)c1)c1ncnn1-c1ncccn1` [Example I-088]: the mortality at 100 ppm in assay [2] amounted to 100%.
Take `CC(NC(=O)c1cc(Cl)cc(S(C)(=O)=O)c1)c1nc(C(F)(F)F)nn1-c1ccc(Cl)cn1` (stereo not drawn) [Example I-090]: in assay [1], the “efficacy (seedlings grown)” value is 100%.
Same read-out and setting: to `CC(NC(=O)c1cc(Cl)cc(S(=O)(=O)C(F)(F)F)c1)c1ncnn1-c1ncc(C(F)(F)F)cn1` (stereo not drawn) [Example I-097] belongs 100%; to `CC(NC(=O)c1cc(C(F)(F)F)cc(Cl)c1F)c1ncnn1-c1ncccn1` (stereo not drawn) [Example I-104], 100%.
In assay [3], `C[C@@H](NC(=O)c1cc(C2CC2)on1)c1ncnn1-c1ncccn1` [Example I-107] showed a mortality at 500 g/ha of 100%. Besides, the pest or weed control at 160 µg/disc, 160 µg/well in assay [1] came to 100%. In assay [5], the mortality at 20 mg/m2 lay in the range of 80 to 100%.
In assay [3], `Cc1cnc(-n2ncnc2[C@@H](C)NC(=O)c2csc(Cl)c2)nc1` [Example I-109] returned a mortality at 500 g/ha of 90%.
On to `CC(NC(=O)c1cccc(-c2ccc(OC(F)(F)F)cc2)c1)c1ncnn1-c1ncccn1` (stereo not drawn) [Example I-115], for which the pest or weed control at 160 µg/disc, 160 µg/well in assay [1] was 100%.
Regarding `C[C@H](NC(=O)c1cc(Cl)cc(S(C)(=O)=O)c1)c1ncnn1-c1cnc(C#N)cn1` [Example I-117], in assay [1], the “efficacy (seedlings grown)” value was found to be 100%.
On to `C[C@H](NC(=O)c1cc(Cl)cc(S(=O)(=O)C(F)(F)F)c1)c1ncnn1-c1ccc(F)cn1` [Example I-118], for which, in assay [1], the “efficacy (seedlings grown)” value is given as 100%.
On the same count and under the same terms, in the case of `C[C@@H](c1ncnn1-c1ccc(C#N)cn1)N(CC1CC1)C(=O)c1cc(F)cc(C2CC2)c1` [Example I-121] it was 100%.
In the case of `C[C@H](NC(=O)c1cc(Br)cc(C(C)(C)C)c1)c1ncnn1-c1ncccn1` [Example I-125], the “efficacy (seedlings grown)” value in assay [1] is 100%.

For the origin of these results see patent US12187705B2, “Heteroaryl-triazole and heteroaryl-tetrazole compounds as pesticides” (Bayer Aktiengesellschaft, priority 2018, dated 2025).
